Measurements reported in patent US20070026478A1, “Hemiasterlin affinity probes and their uses” (WYETH, priority 2002, published 2007).
Structures can show the parent of a compound that is named as a salt. Where two headings read alike, the source gives them in different places. Marks after values point to notes of the source that are not given here.

What was measured:
[1] = biological target: T1, bovine MAP-rich tubulin (Bos taurus, UniProt P81947+Q6B856); assay: Tubulin polymerization assay in a cell-free system; type: biochemical; settings: 0.3 μM compound
T1 construct: MAP-rich bovine brain tubulin (99% purity), Hela cell tubulin (90% purity); purchased Cytoskeleton (Denver, Colo.); host or cells: bovine brain
Procedure: In vitro tubulin polymerization assays were performed according to procedures that have been described elsewhere (Loganzo et al., Cancer Res. 2003, 63:1838-1845). Briefly, bovine MAP-rich tubulin (final concentration 1.5 mg/mL) was dissolved in cold PEM buffer containing 1 mM GTP (GPEM) and centrifuged at 12,000×g for 10 minutes at 4° C. The tubulin solution (100 μL/well) was added rapidly to wells of a low-volume, 96-well plate already containing duplicate aliquots (10 μL) of test compounds in GPEM. Final compound concentrations were 0.3 μM. Control wells contained the same final concentration of DMSO (0.3%). After initiation of the reaction, absorbance at 340 nm was measured every minute for 60 minutes at 24° C. using a SpectraMax Plus plate reader (Molecular Devices, Sunnyvale, Calif.). An increase in absorbance over time indicated an increase in turbidity resulting from tubulin polymerization.

[2] = biological target: T2, bovine brain tubulin (Bos taurus, UniProt P81947+Q6B856); assay: Competition of [3H]-Probe 1 photolabeling of tubulin; type: binding; settings: for inhibition of incorporation of radiolabeled Probe 1 into α-tubulin: 1 mM competitor, 37° C. incubation; for Probe 1 photolabeling of tubulin (% of no-competitor control): control (no competitor) = 100
T2 construct: MAP-rich bovine brain tubulin (99% purity), Hela cell tubulin (90% purity); purchased Cytoskeleton (Denver, Colo.); host or cells: bovine brain
Procedure: (§1) Alternatively, a cytosolic preparation of KB-3-1 cell lysates (50 μg) or KB-3-1 cells (40,000 cells) were used in the place of purified tubulin above. The supernatant of mechanically disrupted cells centrifuged at 100,000×g was used as a cytosolic preparation. K-3-1 cells were prepared by growing KB-3-1 cells in a 96-well plate and rinsing them with serum free medium.
If whole cells were used, Laemmli sample buffer was then added to lyse the cells.
Low grade SDS (Sigma, catalog No. L5750) was used in the running buffer, when needed, to allow separation of α and β-tubulin subunits. Gels were fixed, stained with Coomassie blue from BioRad (Hercules, Calif.) to ensure equal loading of protein, and sliced. […] Alternatively, gels were incubated with EN^3HANCE according to the manufacturer's instructions (Life Sciences Products, Inc.), washed, and dried prior to exposure of the gel to Biomax MX film from Kodak (Rochester, N.Y.) for fluorography.
After incubation for 30 minutes at 37° C., samples were irradiated with 360 nm UV light for 30 minutes and separated by SDS-PAGE. Gels were exposed to film using fluorographic techniques.
In particular, photolabeling experiments were performed as described in section 7.1.5 above, at both room temperature and at 37° C.

[3] = biological target: T3, tubulin in whole KB-3-1 cells (Homo sapiens, UniProt P07437+P68363); assay: Probe 1 photolabeling in whole KB-3-1 cells; type: cell-based; settings: 250 μM pre-incubation at 37° C. for 15 minutes
T3 construct: a cytosolic preparation of KB-3-1 cell lysates (50 μg) or KB-3-1 cells (40,000 cells) were used in the place of purified tubulin; endogenous in cells; host or cells: KB-3-1 cells (cytosolic supernatant at 100,000 x g, or whole cells)
Procedure: Alternatively, a cytosolic preparation of KB-3-1 cell lysates (50 μg) or KB-3-1 cells (40,000 cells) were used in the place of purified tubulin above. The supernatant of mechanically disrupted cells centrifuged at 100,000×g was used as a cytosolic preparation. K-3-1 cells were prepared by growing KB-3-1 cells in a 96-well plate and rinsing them with serum free medium. For experiments with whole cells, 250 μM HTI-286 was used as the competitor molecule during pre-incubation at 37° C. for 15 minutes.
Samples were irradiated at 360 nm with a Mineralight lamp (UVP, Upland, Calif.) for 30 minutes (for Probe 1), 2 hours (for whole cells with Probe 1), or 2 hours (for Probe 2) at 4° C., unless otherwise noted. Radiation of the benzophenone moiety at this wavelength effectively activates the photoprobe with minimal destruction of protein compared to the shorter wavelengths typically used for azido-containing photoprobes (see, Williams et al., Methods Enzymol. 1986, 126:667-682). If whole cells were used, Laemmli sample buffer was then added to lyse the cells.

[4] = biological target: T4, tubulin (Bos taurus, UniProt P81947+Q6B856); assay: Separation of polymerized and free tubulin by centrifugation; type: biochemical, bovine; settings: 50 μM drug, centrifugation at 10,000 g and 100,000 g
T4 construct: MAP-rich bovine brain tubulin (99% purity), Hela cell tubulin (90% purity); purchased Cytoskeleton (Denver, Colo.); host or cells: bovine brain
Procedure: Tubulin (5 μg) was incubated with 50 μM drug at room temperature for 25 minutes and then centrifuged at either 10,000 g for 15 minutes in a tabletop microfuge or at 100,000 g for 15 minutes in an airfuge. The supernatant was carefully removed to a fresh tube to obtain free tubulin and the pellet was solubilized in SDS-PAGE sample buffer.

[5] = biological target: T2, bovine brain tubulin; assay: Reversible binding affinity assay (tubulin fluorescence)
Procedure: The affinity of both HTI-286 and of non-radiolabled Probe 1 and Probe 2, to bovine brain tubulin was determined by previously published methods (Krishnamurthy et al., Biochem., submitted). Briefly, 5 mg/mL […] tubulin prepared in PEM buffer was pre-incubated with buffer or varying concentrations of test agents in individual quartz cuvettes. The intrinsic tryptophan fluorescence of tubulin (excitation at 560 nm and maximal emission at 580 nm) was measured after pre-incubation for 90 minutes. The change in fluorescence intensity at 580 nm in the presence of compound was fitted to a quadratic equation to obtain apparent dissociation constants (KD) of the test agents.

[6] = biological target: P-glycoprotein (Homo sapiens, UniProt P08183); settings: Loganzo et al., Cancer Res. 2003; cited from earlier work
[7] = biological target: T4, tubulin; assay: Competition of [3H]-Probe 2 photolabeling of tubulin; type: binding, bovine; settings: 100 μM competitor, 2.5 μM tubulin, 0.25 μM [3H]-Probe 2, room temperature
Procedure: as §1
Competition binding experiments were performed as described in Section 7.1.5. […] Samples were then irradiated for 2 hours at 4° C. and evaluated by SDS-PAGE and fluorography.

[8] = biological target: T5, α-tubulin (Bos taurus, UniProt P81947+Q6B856); assay: Subtilisin digestion of tubulin after incubation with various compounds; type: biochemical, bovine; settings: 50 μM drug, subtilisin up to 60 min at room temperature
T5 construct: MAP-rich bovine brain tubulin (99% purity), Hela cell tubulin (90% purity); purchased Cytoskeleton (Denver, Colo.); host or cells: bovine brain
Procedure: Tubulin (5 μg) was incubated with 50 μM drug at room temperature for 25 minutes and then digested under native conditions with subtilisin (0.05 μg) for 0, 5, 10, 15, 30 and 60 min at room temperature. Enzymatic digestion was stopped with 1 mM PMSF and samples were resolved by SDS-PAGE under conditions that allowed separation of α- and β-tubulin subunits. Gels were then fixed and stained with Coomassie blue.

[9] = test system: KB cells; assay: Cell proliferation assay in tissue culture (SRB); type: cell-based; settings: Homo sapiens, KB, 72 h
Procedure: Cell proliferation studies were performed according to procedures described by Loganzo et al. (Cancer Res. 2003, 63:1838-1845). Briefly, KB cells were plated in 96-well plates in 100 μL media at densities pre-determined to produce 60-90% confluence at the time of analysis. Compounds, which were serially diluted into media as 2× stocks, were added to cells in duplicate. After 72 hours of incubation, cell survival was assayed by the SRB assay as described (Rabindran et al., C. Cancer Res. 1998, 58:5850-5858). IC50 values (i.e. the concentration of drug needed to inhibit cell growth by 50%) were used to evaluate drug potency.

CN[C@H](C(=O)N[C@H](C(=O)N(C)[C@H](/C=C(\C)C(=O)O)C(C)C)C(C)(C)C)C(C)(C)c1ccccc1 [HTI-286, N,β,β-trimethyl-L-phenylalany-N^1[(1S,2E)-3-carboxy-1-isopropylbut-2-enyl]-N^1,3-dimethyl-L-valinamide trifluoroacetate]
inhibition at 0.3 µM [1]: 88%
tubulin polymerization (% inhibition) ([1]; 0.3 µM): 87.5 ± 12.2 (n = 49) %
inhibition of incorporation of radiolabeled Probe 1 into α-tubulin ([2]; 0.25 μM radiolabeled Probe 1, 2.5 μM tubulin): completely inhibits
inhibition of incorporation of radiolabeled Probe 1 into α-tubulin ([2]; 2.5 μM radiolabeled Probe 1, 2.5 μM tubulin): more than 50%
reduction of Probe 1 photolabeling of tubulin ([2]; 37° C.): about 50%
Probe 1 photolabeling of tubulin (% of no-competitor control) ([2]; 37° C., 100 μM competitor): 47^† %
Probe 1 photolabeling of tubulin (% of no-competitor control) ([2]; Room Temp., 2.5 μM tubulin, 0.25 μM radiolabeled Probe 1, 100 μM competitor): 27 ± 4%
IC50 ([2]; room temperature, 2.5 μM tubulin, 0.25 μM radiolabeled Probe 1, read-out: IC50 for inhibition of Probe 1 photolabeling of tubulin): 7000 nM
reduction of Probe 1 photolabeling of tubulin ([2]; room temperature, 400-fold molar excess (100 μM) competitor, 2.5 μM tubulin, 0.25 μM radiolabeled Probe 1): approximately 72%
competition of radiolabeled Probe 1 labeling in whole cells [3]: eliminates the specific labeling of the 50 kDa tubulin band
protein recovered in pellet fractions (tubulin aggregation) [4]: no significant protein was recovered
Kd ([5]; Table 1, binding to bovine brain tubulin, read-out: KD): 400 to 800 nM
Kd ([5]; rhodamine-labeled tubulin, 90 minutes pre-incubation, read-out: apparent binding constant (KD), fluorescence method): 600 nM
interaction with P-glycoprotein [6]: weak interaction
inhibition of Probe 2 labeling of tubulin [7]: 45%
protection of α-tubulin from subtilisin cleavage [8]: unable to cleave α-tubulin even after 60 minutes
IC50 [9]: 0.96 nM
